Values of other authors, collected in patent US8450380B2, “Method for implementing active ingredients in order to protect them and optimize their delivery method” (Coatex S.A.S., priority 2007, dated 2013).

Conditions: general statement

O=c1c2cc(Cl)ccc2[nH]c2cc3c(=O)c4cc(Cl)ccc4[nH]c3cc12 [Magenta Cinquasia RT-235-D, 2,9 dichloro-5,12 dihydroquino [2,3-b] acridine-7,14 dione]
Solubility: non-hydrosoluble
